From PubChem BioAssay AID1259407 (Chemical Carcinogenesis Research Information System (CCRIS), 2018) come the findings set out here.

The data set deals with CCRIS mutagenicity, Ames/micronucleus/aberration tests. Kind of data set: CCRIS mutagenicity studies.
Setting [1] is: Test System: AMES SALMONELLA TYPHIMURIUM, Strain/Indicator: TA100, Metabolic Activation: NONE, Method: PREINCUBATION
The mark [2] stands for this setting: Test System: AMES SALMONELLA TYPHIMURIUM, Strain/Indicator: TA100, Metabolic Activation: RAT, LIVER, S-9, AROCLOR 1254, Method: STANDARD PLATE.
[3] abbreviates: Test System: AMES SALMONELLA TYPHIMURIUM, Strain/Indicator: TA100, Metabolic Activation: NONE, Method: STANDARD PLATE.
Setting [4] is: Test System: AMES SALMONELLA TYPHIMURIUM, Strain/Indicator: TA1535, Metabolic Activation: NONE, Method: STANDARD PLATE.
The mark [5] stands for this setting: Test System: AMES SALMONELLA TYPHIMURIUM, Strain/Indicator: TA98, Metabolic Activation: NONE, Method: STANDARD PLATE.

Active and inactive are the calls of the source. How the calls were made is not given here.

In the case of `Cc1ccc2cc3c(ccc4ccccc43)c3c2c1C(O)C3` (stereo not drawn), for the setting “Test System: CHINESE HAMSTER V-79, Strain/Indicator: V-79/8-AZAGUANINE, Metabolic Activation: RAT, LIVER, S-9, AROCLOR 1254, Method: STANDARD PLATE”, the mutagenic call is “active; positive”.
`Cc1ccc(N)cc1[N+](=O)[O-]`: the mutagenic call runs as follows: (Test System: AMES SALMONELLA TYPHIMURIUM, Strain/Indicator: TA98, Metabolic Activation: NONE, Method: SUSPENSION/PLATE) “inactive; negative”; (Test System: AMES SALMONELLA TYPHIMURIUM, Strain/Indicator: TA98, Metabolic Activation: RAT, LIVER, S-9, KANECHLOR 500, Method: PREINCUBATION) “active; positive”; (Test System: AMES SALMONELLA TYPHIMURIUM, Strain/Indicator: TA98, Metabolic Activation: RAT, LIVER, S-9, PCB, Method: PREINCUBATION) “inactive; negative”; (Test System: AMES SALMONELLA TYPHIMURIUM, Strain/Indicator: TA98, Metabolic Activation: RAT, LIVER, S-9, PHENOBARBITAL AND 5,6-BENZOFLAVONE, Method: SUSPENSION/PLATE) “inactive; negative”; under setting [1], “active; positive”; (Test System: AMES SALMONELLA TYPHIMURIUM, Strain/Indicator: TA100, Metabolic Activation: NONE, Method: SUSPENSION/PLATE) “inactive; negative”. For the same compound, the mutagenic call is “active; positive” (Test System: AMES SALMONELLA TYPHIMURIUM, Strain/Indicator: TA100, Metabolic Activation: RAT, LIVER, S-9, KANECHLOR 500, Method: PREINCUBATION) and “inactive; negative” (Test System: AMES SALMONELLA TYPHIMURIUM, Strain/Indicator: TA100, Metabolic Activation: RAT, LIVER, S-9, PHENOBARBITAL AND 5,6-BENZOFLAVONE, Method: SUSPENSION/PLATE).
Take `CC1c2ccccc2-c2ccc(F)cc21` (stereo not drawn): the mutagenic call under setting [2] is “active; positive”.
In the case of `O[C@@H]1[C@@H]2O[C@@H]2c2c(cc3ccc4cccc5c6ccccc6c2c3c45)[C@H]1O`, the mutagenic call was “active; positive” (Test System: AMES SALMONELLA TYPHIMURIUM, Strain/Indicator: TA97, Metabolic Activation: NONE, Method: PREINCUBATION (EXPOSURE IN MEDIUM WITH KCL)); “active; positive” (Test System: AMES SALMONELLA TYPHIMURIUM, Strain/Indicator: TA97, Metabolic Activation: NONE, Method: PREINCUBATION (EXPOSURE IN MEDIUM WITHOUT KCL)); “active; positive” (Test System: AMES SALMONELLA TYPHIMURIUM, Strain/Indicator: TA98, Metabolic Activation: NONE, Method: PREINCUBATION (EXPOSURE IN MEDIUM WITH KCL)); “active; positive” (Test System: AMES SALMONELLA TYPHIMURIUM, Strain/Indicator: TA98, Metabolic Activation: NONE, Method: PREINCUBATION (EXPOSURE IN MEDIUM WITHOUT KCL)); “active; positive” (Test System: AMES SALMONELLA TYPHIMURIUM, Strain/Indicator: TA100, Metabolic Activation: NONE, Method: PREINCUBATION (EXPOSURE IN MEDIUM WITH KCL)); “active; positive” (Test System: AMES SALMONELLA TYPHIMURIUM, Strain/Indicator: TA100, Metabolic Activation: NONE, Method: PREINCUBATION (EXPOSURE IN MEDIUM WITHOUT KCL)). For the same compound, the mutagenic call is “active; positive” (Test System: AMES SALMONELLA TYPHIMURIUM, Strain/Indicator: TA104, Metabolic Activation: NONE, Method: PREINCUBATION (EXPOSURE IN MEDIUM WITH KCL)); “active; positive” (Test System: AMES SALMONELLA TYPHIMURIUM, Strain/Indicator: TA104, Metabolic Activation: NONE, Method: PREINCUBATION (EXPOSURE IN MEDIUM WITHOUT KCL)); “active; positive” (Test System: CHINESE HAMSTER V-79, Strain/Indicator: V-79/6-THIOGUANINE, Metabolic Activation: NONE).
As to `O=C1C=C(c2nnc(NC(=O)c3ccccc3)s2)C(=O)C=C1Nc1ccc([N+](=O)[O-])cc1`, the mutagenic call under setting [3] is “active; positive”.
For `c1ccc([C@H]2O[C@@H]2c2ccccc2)cc1`, the mutagenic call is, setting by setting: under setting [3], “inactive; negative”; under setting [4], “inactive; negative”.
Regarding `O=C(Nc1cccc2c(=O)c3c(ccc4c5cc(NC(=O)c6ccccc6)c6c(=O)c7ccccc7c(=O)c6c5[nH]c43)c(=O)c12)c1ccccc1`, the mutagenic call was “inactive; negative” (Test System: AMES SALMONELLA TYPHIMURIUM, Strain/Indicator: TA98, Metabolic Activation: HAMSTER, LIVER, S-9, AROCLOR 1254 (10%), Method: PREINCUBATION); “inactive; negative” (Test System: AMES SALMONELLA TYPHIMURIUM, Strain/Indicator: TA98, Metabolic Activation: NONE, Method: PREINCUBATION); “inactive; negative” (Test System: AMES SALMONELLA TYPHIMURIUM, Strain/Indicator: TA98, Metabolic Activation: RAT, LIVER, S-9, AROCLOR 1254 (10%), Method: PREINCUBATION); “inactive; negative” (Test System: AMES SALMONELLA TYPHIMURIUM, Strain/Indicator: TA100, Metabolic Activation: HAMSTER, LIVER, S-9, AROCLOR 1254 (10%), Method: PREINCUBATION); “inactive; negative” under setting [1]; “inactive; negative” (Test System: AMES SALMONELLA TYPHIMURIUM, Strain/Indicator: TA100, Metabolic Activation: RAT, LIVER, S-9, AROCLOR 1254 (10%), Method: PREINCUBATION). The mutagenic call reads like this: (Test System: AMES SALMONELLA TYPHIMURIUM, Strain/Indicator: TA1535, Metabolic Activation: HAMSTER, LIVER, S-9, AROCLOR 1254 (10%), Method: PREINCUBATION) “inactive; negative”; (Test System: AMES SALMONELLA TYPHIMURIUM, Strain/Indicator: TA1535, Metabolic Activation: NONE, Method: PREINCUBATION) “inactive; negative”; (Test System: AMES SALMONELLA TYPHIMURIUM, Strain/Indicator: TA1535, Metabolic Activation: RAT, LIVER, S-9, AROCLOR 1254 (10%), Method: PREINCUBATION) “inactive; negative”; (Test System: AMES SALMONELLA TYPHIMURIUM, Strain/Indicator: TA1537, Metabolic Activation: HAMSTER, LIVER, S-9, AROCLOR 1254 (10%), Method: PREINCUBATION) “inactive; negative”; (Test System: AMES SALMONELLA TYPHIMURIUM, Strain/Indicator: TA1537, Metabolic Activation: NONE, Method: PREINCUBATION) “inactive; negative”; (Test System: AMES SALMONELLA TYPHIMURIUM, Strain/Indicator: TA1537, Metabolic Activation: RAT, LIVER, S-9, AROCLOR 1254 (10%), Method: PREINCUBATION) “inactive; negative”. The mutagenic call (Test System: Ames Salmonella typhimurium, Strain/Indicator: TA98, Metabolic Activation: None, Method: Preincubation) is “active; positive”; the mutagenic call (Test System: Ames Salmonella typhimurium, Strain/Indicator: TA100, Metabolic Activation: None, Method: Preincubation) is “inactive; negative”; the mutagenic call (Test System: Ames Salmonella typhimurium, Strain/Indicator: TA102, Metabolic Activation: None, Method: Preincubation) is “inactive; negative”; the mutagenic call (Test System: Ames Salmonella typhimurium, Strain/Indicator: TA1535, Metabolic Activation: None, Method: Preincubation) was “inactive; negative”.
Take `CCOC(=O)CN=[N+]=[N-]`: the mutagenic call (Test System: AMES SALMONELLA TYPHIMURIUM, Strain/Indicator: TA1530, Metabolic Activation: NONE, Method: STANDARD PLATE) is “active; positive”.
As to `ClC(Cl)=Cc1c(Cl)c(Cl)c(Cl)c(Cl)c1Cl`, the mutagenic call is “inactive; negative” under setting [5]; “inactive; negative” (Test System: AMES SALMONELLA TYPHIMURIUM, Strain/Indicator: TA98, Metabolic Activation: RAT, LIVER, S-9, AROCLOR 1254, Method: STANDARD PLATE); “inactive; negative” under setting [3]; “inactive; negative” under setting [2].
For the compound `Nc1nc(N)nc(Cl)n1`, the mutagenic call is “inactive; negative” (Test System: AMES SALMONELLA TYPHIMURIUM, Strain/Indicator: TA97, Metabolic Activation: NONE, Method: STANDARD PLATE); “inactive; negative” under setting [5]; “inactive; negative” under setting [3].
As to `C[C@@H]1O[C@H]1C`, the mutagenic call by setting is: (Test System: AMES SALMONELLA TYPHIMURIUM, Strain/Indicator: TA100, Metabolic Activation: NONE, Method: FLASK VAPORIZATION) “active; positive”; under setting [3], “active; positive”; (Test System: AMES SALMONELLA TYPHIMURIUM, Strain/Indicator: TA100, Metabolic Activation: RAT, LIVER, S-9, AROCLOR 1254, Method: FLASK VAPORIZATION) “active; positive”; (Test System: AMES SALMONELLA TYPHIMURIUM, Strain/Indicator: TA1535, Metabolic Activation: NONE, Method: FLASK VAPORIZATION) “active; positive”; under setting [4], “active; positive”; (Test System: AMES SALMONELLA TYPHIMURIUM, Strain/Indicator: TA1535, Metabolic Activation: RAT, LIVER, S-9, AROCLOR 1254, Method: FLASK VAPORIZATION) “active; positive”.
`Oc1cc2cc3c(ccc4ccccc43)cc2c2ccccc12`: under “Test System: CHINESE HAMSTER V-79, Strain/Indicator: V-79/8-AZAGUANINE, Metabolic Activation: NONE, Method: STANDARD PLATE”, the mutagenic call was “active; positive”.
